According to patent publication US6506766B1 (Abbott Laboratories, priority 1998, dated 2003):
Where two headings read alike, the source gives them in different places.

What was measured:
[1] = molecular target: T1, human glucocorticoid receptor-α [GRX] isoform (Homo sapiens, UniProt P04150); assay: Radioligand binding with human glucocorticoid receptor cytosol ([3H]-dexamethasone competition)
T1 construct: host or cells: insect SF21 cells (baculovirus)
T1 sequence (P04150 1-777): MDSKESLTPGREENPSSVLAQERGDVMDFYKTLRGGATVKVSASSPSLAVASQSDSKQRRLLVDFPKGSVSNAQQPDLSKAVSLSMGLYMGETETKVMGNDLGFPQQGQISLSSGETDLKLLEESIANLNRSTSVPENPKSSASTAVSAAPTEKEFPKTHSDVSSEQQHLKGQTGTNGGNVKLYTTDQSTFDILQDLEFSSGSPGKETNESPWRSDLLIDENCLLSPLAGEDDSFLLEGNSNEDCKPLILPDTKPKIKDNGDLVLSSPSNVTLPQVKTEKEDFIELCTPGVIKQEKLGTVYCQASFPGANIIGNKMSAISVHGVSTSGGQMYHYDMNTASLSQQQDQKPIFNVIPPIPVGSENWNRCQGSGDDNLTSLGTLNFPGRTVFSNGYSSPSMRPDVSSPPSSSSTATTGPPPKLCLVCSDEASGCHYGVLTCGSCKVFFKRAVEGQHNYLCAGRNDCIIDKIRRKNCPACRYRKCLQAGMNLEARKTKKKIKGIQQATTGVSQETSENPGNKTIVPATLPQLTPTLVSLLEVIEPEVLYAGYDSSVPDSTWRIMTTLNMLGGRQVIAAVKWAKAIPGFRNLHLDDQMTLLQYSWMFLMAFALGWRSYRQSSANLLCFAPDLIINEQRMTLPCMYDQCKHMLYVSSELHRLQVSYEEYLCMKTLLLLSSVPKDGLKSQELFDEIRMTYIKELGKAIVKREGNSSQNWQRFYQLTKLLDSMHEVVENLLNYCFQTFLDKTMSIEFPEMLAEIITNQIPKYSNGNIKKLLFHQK

[2] = molecular target: T2, human progesterone receptor-A [PRA] isoform (Homo sapiens, UniProt P06401); assay: Radioligand binding with human progesterone receptor cytosol ([3H]-progesterone competition); details: read-out: Ki (nM) PR
T2 construct: host or cells: insect SF21 cells (baculovirus)
T2 sequence (P06401 1-769 isoform P06401-2): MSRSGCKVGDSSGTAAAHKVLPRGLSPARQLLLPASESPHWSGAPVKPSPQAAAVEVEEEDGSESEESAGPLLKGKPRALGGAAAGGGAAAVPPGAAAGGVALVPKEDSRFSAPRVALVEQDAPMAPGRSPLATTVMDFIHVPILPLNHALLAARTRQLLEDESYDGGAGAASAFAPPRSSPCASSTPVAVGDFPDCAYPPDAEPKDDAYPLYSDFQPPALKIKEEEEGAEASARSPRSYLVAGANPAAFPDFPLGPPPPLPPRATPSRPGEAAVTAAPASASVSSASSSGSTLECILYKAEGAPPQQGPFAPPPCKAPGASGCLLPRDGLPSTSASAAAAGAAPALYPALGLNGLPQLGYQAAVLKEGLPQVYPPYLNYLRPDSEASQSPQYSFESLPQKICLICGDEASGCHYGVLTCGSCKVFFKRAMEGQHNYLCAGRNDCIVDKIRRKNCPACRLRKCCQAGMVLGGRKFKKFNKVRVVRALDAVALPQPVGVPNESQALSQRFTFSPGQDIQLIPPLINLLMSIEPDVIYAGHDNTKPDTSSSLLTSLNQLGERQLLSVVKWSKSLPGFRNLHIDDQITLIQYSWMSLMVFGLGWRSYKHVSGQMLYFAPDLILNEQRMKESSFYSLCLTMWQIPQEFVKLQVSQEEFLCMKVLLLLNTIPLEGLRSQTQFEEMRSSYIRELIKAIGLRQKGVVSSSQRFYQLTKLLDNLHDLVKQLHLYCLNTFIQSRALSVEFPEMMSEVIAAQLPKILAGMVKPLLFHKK

[3] = GRX cytosol expressed in insect SF21 cells, [3H]-Dex ~0.9 nM, 4° C. overnight, Ki by Cheng-Prusoff, KL ~[…], read-out: Ki (nM) GR
[4] = PRA cytosol expressed in insect SF21 cells, [3H]Prog ~0.8 nM, 4° C. overnight, Ki by Cheng-Prusoff, KL ~4.5 nM

Row | Molecule | Ki ([1]; read-out: Ki (nM) GR) | Ki [2] | Ki [1, 3] | Ki [2, 4] | Ki ([1]; Ki (nM) GR)
1 | 5-Butyl-2,5-dihydro-9-hydroxy-10-methoxy-2,2,4-trimethyl-1H-[1]benzopyrano[3,4-f]quinoline [Example 251] | 0.87 nM | 163 nM |  |  | 
2 | 9,10-Dimethoxy-5-[3-cyclohexenyl]-methoxy-2,2,4-trimethyl-2,5-dihydro-1H-[1]benzopyrano[3,4-f]quinoline [Example 291] | 8.1 nM | 592 nM |  |  | 
3 | COc1cccc2c1-c1ccc3c(c1C(C1C=CCC(C)(C)C1)O2)C(C)=CC(C)(C)N3 (mixture of isomers) [Example 133] |  |  | 3.6 nM | 4870 nM | 
4 | COc1cccc2c1-c1ccc3c(c1C(C1C=CCCC1)O2)C(C)=CC(C)(C)N3 (mixture of isomers) [Example 137] |  |  |  | 2410 nM | 5.5 nM
5 | C=C1CCCCC1C1Oc2cccc(OC)c2-c2ccc3c(c21)C(C)=CC(C)(C)N3 (mixture of isomers) [Example 141, 2,5-Dihydro-10-methoxy-5-(1-methylene-2-cyclohexyl)-2,2,4-trimethyl-1H-[1]benzopyrano[3,4-f]quinoline] |  |  |  | ≥ 10000 nM | 10 nM
6 | COc1cccc2c1-c1ccc3c(c1C(CC(O)CO)O2)C(C)=CC(C)(C)N3 (mixture of isomers) [Example 174, 2,5-Dihydro-10-methoxy-5-(1,2-dihydroxy-3-propyl)-2,2,4-trimethyl-1H-[1]benzopyrano[3,4-f]quinoline] |  |  | 270 nM | ≥ 10000 nM | 
7 | COc1c(O)ccc2c1-c1ccc3c(c1C(C1C=CCCC1)O2)C(C)=CC(C)(C)N3 (racemic) [Example 236] |  |  | 0.89 nM | 36.2 nM | 
8 | COc1c(O)ccc2c1-c1ccc3c(c1[C@H]([C@H]1C=C(C)CCC1)O2)C(C)=CC(C)(C)N3 (racemic) [Example 243, (+/−)(5S,3′R)2,5-Dihydro-9-hydroxy-10-methoxy-2,2,4-trimethyl-5-(1-methylcyclohexen-3-yl)-1H-[1]benzopyrano[3,4-f]quinoline] |  |  | 1.6 nM | 21.2 nM | 
9 | COc1c(O)ccc2c1-c1ccc3c(c1C(c1c(F)c(F)c(F)c(F)c1F)O2)C(C)=CC(C)(C)N3 (racemic) [Example 269, (±)2,5-Dihydro-9-hydroxy-10-methoxy-2,2,4-trimethyl-5-(2,3,4,5,6-pentafluorophenyl)-1H-[1]benzopyrano[3,4-f]quinoline] |  |  | 17.1 nM | 2470 nM | 
10 | COC(=O)C1=C[C@@H]([C@@H]2Oc3ccc(O)c(OC)c3-c3ccc4c(c32)C(C)=CC(C)(C)N4)CC1 (racemic) [Example 271, (+/−)2,5-Dihydro-9-hydroxy-10-methoxy-2,2,4-trimethyl-5(S)-(3(S)-1-methylcarboxylatecyclopenten-3-yl)-1H-[1]benzopyrano[3,4-f]quinoline] |  |  | 0.82 nM | 2290 nM | 
11 | COc1c(O)ccc2c1-c1ccc3c(c1C(c1ccccc1C)O2)C(C)=CC(C)(C)N3 (racemic) [Example 275, (±)2,5-Dihydro-9-hydroxy-10-methoxy-2,2,4-trimethyl-5-(2-methylphenyl)-1H-[1]benzopyrano[3,4-f]quinoline] |  |  | 11.7 nM | 2870 nM | 
12 | COc1c(C)ccc2c1-c1ccc3c(c1C(C1C=C(C)CCC1)O2)C(C)=CC(C)(C)N3 (racemic) [Example 307, (+/−)2,5-Dihydro-9-methyl-10-methoxy-2,2,4-trimethyl-5-(1-methylcyclohexen-3-yl)-1H-[1]benzopyrano[3,4-f]quinoline] |  |  | 4.6 nM | 27.8 nM | 
13 | CC1=CC(C)(C)Nc2ccc3c(c21)C(c1ccccc1)Oc1cccc(Cl)c1-3 (racemic) [Example 310, (+/−)2,5-Dihydro-10-chloro-2,2,4-trimethyl-5-phenyl-1H-[1]benzopyrano[3,4-f]quinoline] |  |  | 4.4 nM | 382 nM | 
14 | C=CCC1Oc2ccc(OC(=O)CCCNC(C)=O)c(OC)c2-c2ccc3c(c21)C(C)=CC(C)(C)N3 (racemic) [Example 344, (+/−)2,5-Dihydro-9-(4-acetamidobutanoyloxy)-10-methoxy-2,2,4-trimethyl-5-allyl-1H-[1]benzopyranol[3,4-f]quinoline] |  |  | 0.46 nM | 76.7 nM | 
15 | C=CCC1Oc2ccc(OCC#N)c(OC)c2-c2ccc3c(c21)C(C)=CC(C)(C)N3 (racemic) [Example 377, (+/−)2,5-Dihydro-9-cyanomethoxy-10-methoxy-2,2,4-trimethyl-5-allyl-1H-[1]benzopyrano[3,4-f]quinoline] |  |  | 51 nM | 3080 nM | 
16 | C=CCC1Oc2ccc(OC(=O)CCNC(C)=O)c(OC)c2-c2ccc3c(c21)C(C)=CC(C)(C)N3 (racemic) [Example 428, (+/−)2,5-Dihydro-9-(3-acetamido-propanoyloxy)-10-methoxy-2,2,4-trimethyl-5-allyl-1H-[1]benzopyrano[3,4-f]quinoline] |  |  | 0.91 nM | 204 nM | 
17 | CC1=CC(C)(C)Nc2ccc3c(c21)C(Cc1ccccc1)Oc1ccc(O)c(Cl)c1-3 (racemic) [Example 429, (+/−)2,5-Dihydro-9-hydroxy-10-chloro-2,2,4-trimethyl-5-benzyl-1H-[1]benzopyrano[3,4-f]quinoline] |  |  | 4.1 nM | 29.1 nM | 
18 | C=CCC1Oc2ccc(OC(=O)CNC(N)=O)c(OC)c2-c2ccc3c(c21)C(C)=CC(C)(C)N3 (racemic) [Example 432, (+/−)2,5-Dihydro-9-(N-carbamoyl-2-aminoacetoxy)-10-methoxy-2,2,4-trimethyl-5-allyl-1H-[1]benzopyrano[3,4-f]quinoline] |  |  | 1.4 nM | 207 nM | 
19 | C=CCC1Oc2ccc(OCCCC(=O)OCC)c(OC)c2-c2ccc3c(c21)C(C)=CC(C)(C)N3 (racemic) [Example 433, (+/−)2,5-Dihydro-9-(4-ethoxy-4-oxo-butoxy)-10-methoxy-2,2,4-trimethyl-5-allyl-1H-[1]benzopyrano[3,4-f]quinoline] |  |  | 30.2 nM | 1410 nM | 
20 | C=CCC1Oc2ccc(OC(=O)CCC(C)=O)c(OC)c2-c2ccc3c(c21)C(C)=CC(C)(C)N3 (racemic) [Example 434, (+/−)2,5-Dihydro-9-(4-oxo-pentanoyloxy)-10-methoxy-2,2,4-trimethyl-5-allyl-1H-[1]benzopyrano[3,4-f]quinoline] |  |  | 0.96 nM | 123 nM | 
21 | COc1cccc2c1-c1ccc3c(c1[C@H]([C@H]1C=C(CO)CCC1)O2)C(C)=CC(C)(C)N3 (relative stereo) [Example 148] |  |  | 2.8 nM | ≥ 10000 nM | 
22 | COc1cccc2c1-c1ccc3c(c1[C@@H]([C@H]1C=C(CO)CCC1)O2)C(C)=CC(C)(C)N3 (relative stereo) [Example 149] |  |  | 2.7 nM | 4060 nM | 
23 | COc1cccc2c1-c1ccc3c(c1[C@@H]([C@H]1C=C(CN(C)C)CCC1)O2)C(C)=CC(C)(C)N3 (relative stereo) [Example 165] |  |  | 14 nM | ≥ 10000 nM | 
24 | COc1cccc2c1-c1ccc3c(c1[C@@H]([C@H]1C=C(CN(C)S(C)(=O)=O)CCC1)O2)C(C)=CC(C)(C)N3 (relative stereo) [Example 168, rel (5R, 3′R) 2,5-Dihydro-10-methoxy-5-(1-(N-methyl-N-methylsulfonylamino)methyl-3-cyclohexenyl)-2,2,4-trimethy-1H-[1]benzopyrano[3,4-f]quinoline] |  |  | 2.5 nM | ≥ 10000 nM | 
25 | COc1c(O)ccc2c1-c1ccc3c(c1[C@H]([C@H]1C=C(CO)CCC1)O2)C(C)=CC(C)(C)N3 (relative stereo) [Example 242] |  |  | 0.53 nM | 3420 nM | 
